Results from PubChem BioAssay (NCI).
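Compound exposure: 48 hours, 5 concentrations, 96-well plates. GI50: concentration for 50% inhibition of growth. TGI marks complete inhibition of growth.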

How the values were obtained:
Assay in all cases: inhibition of tumour cell growth, NCI panel, 48 h
NCI-H522 lung = system: NCI-H522 lung
SNB-19 CNS = system: SNB-19 CNS
SF-539 CNS = system: SF-539 CNS
MDA-MB-231 breast = system: MDA-MB-231 breast
SK-OV-3 ovarian = system: SK-OV-3 ovarian
BT-549 breast = system: BT-549 breast
NCI-H23 lung = system: NCI-H23 lung
A549 NSCLC = system: A549 NSCLC
HOP-62 NSCLC = system: HOP-62 NSCLC
SN12C renal = system: SN12C renal
CAKI-1 renal = system: CAKI-1 renal
SF-295 CNS = system: SF-295 CNS
NCI-H226 lung = system: NCI-H226 lung
IGROV1 ovarian = system: IGROV1 ovarian
COLO 205 colon = system: COLO 205 colon
OVCAR-3 ovarian = system: OVCAR-3 ovarian
MCF7 breast = system: MCF7 breast
HCC-2998 colon = system: HCC-2998 colon
CCRF-CEM leukemia = system: CCRF-CEM leukemia
K-562 leukemia = system: K-562 leukemia
NCI/ADR-RES ovarian = system: NCI/ADR-RES ovarian
LOX IMVI melanoma = system: LOX IMVI melanoma
UO-31 renal = system: UO-31 renal
PC-3 prostate = system: PC-3 prostate
SF-268 CNS = system: SF-268 CNS
MOLT-4 leukemia = system: MOLT-4 leukemia
A498 renal = system: A498 renal
786-0 renal = system: 786-0 renal
HL-60(TB) leukemia = system: HL-60(TB) leukemia
HOP-92 NSCLC = system: HOP-92 NSCLC
M14 melanoma = system: M14 melanoma
MDA-MB-435 = system: MDA-MB-435
HCT-15 colon = system: HCT-15 colon
HT29 colon = system: HT29 colon
T-47D breast = system: T-47D breast
OVCAR-5 ovarian = system: OVCAR-5 ovarian
SK-MEL-5 melanoma = system: SK-MEL-5 melanoma
NCI-H460 lung = system: NCI-H460 lung
SK-MEL-2 melanoma = system: SK-MEL-2 melanoma
SNB-75 CNS = system: SNB-75 CNS
UACC-257 melanoma = system: UACC-257 melanoma
RXF 393 renal = system: RXF 393 renal
RPMI-8226 leukemia = system: RPMI-8226 leukemia
SR leukemia = system: SR leukemia
KM12 colon = system: KM12 colon
SW-620 colon = system: SW-620 colon
U251 CNS = system: U251 CNS
OVCAR-4 ovarian = system: OVCAR-4 ovarian
EKVX NSCLC = system: EKVX NSCLC
UACC-62 melanoma = system: UACC-62 melanoma
HS 578T breast = system: HS 578T breast
HCT-116 colon = system: HCT-116 colon
SK-MEL-28 melanoma = system: SK-MEL-28 melanoma
TK-10 renal = system: TK-10 renal
DU-145 prostate = system: DU-145 prostate
ACHN renal = system: ACHN renal
OVCAR-8 ovarian = system: OVCAR-8 ovarian
MALME-3M melanoma = system: MALME-3M melanoma

Structure (SMILES): CCNc1cc(-c2cccc(OC(F)(F)F)c2)nc2ccc(N3CCCC3)cc12
- GI50 (NCI-H522 lung): 1450 nM
- TGI (NCI-H522 lung): 3650 nM
- GI50 (SNB-19 CNS): 3120 nM
- TGI (SNB-19 CNS): 10900 nM
- GI50 (SF-539 CNS): 1730 nM
- TGI (SF-539 CNS): 3360 nM
- GI50 (MDA-MB-231 breast): 1580 nM
- TGI (MDA-MB-231 breast): 3160 nM
- GI50 (SK-OV-3 ovarian): 1800 nM
- TGI (SK-OV-3 ovarian): 3860 nM
- GI50 (BT-549 breast): 2030 nM
- TGI (BT-549 breast): 4070 nM
- GI50 (NCI-H23 lung): 1840 nM
- TGI (NCI-H23 lung): 4470 nM
- GI50 (A549 NSCLC): 2680 nM
- TGI (A549 NSCLC): 10500 nM
- GI50 (HOP-62 NSCLC): 1620 nM
- TGI (HOP-62 NSCLC): 3160 nM
- GI50 (SN12C renal): 1700 nM
- TGI (SN12C renal): 3970 nM
- GI50 (CAKI-1 renal): 1810 nM
- TGI (CAKI-1 renal): 4900 nM
- GI50 (SF-295 CNS): 1820 nM
- TGI (SF-295 CNS): 3600 nM
- GI50 (NCI-H226 lung): 1670 nM
- TGI (NCI-H226 lung): 4530 nM
- GI50 (IGROV1 ovarian): 1780 nM
- TGI (IGROV1 ovarian): 4790 nM
- GI50 (COLO 205 colon): 1800 nM
- TGI (COLO 205 colon): 4210 nM
- GI50 (OVCAR-3 ovarian): 1560 nM
- TGI (OVCAR-3 ovarian): 3140 nM
- GI50 (MCF7 breast): 1840 nM
- TGI (MCF7 breast): 6540 nM
- GI50 (HCC-2998 colon): 2270 nM
- TGI (HCC-2998 colon): 6060 nM
- GI50 (CCRF-CEM leukemia): 2040 nM
- TGI (CCRF-CEM leukemia): 8690 nM
- GI50 (K-562 leukemia): 1430 nM
- TGI (K-562 leukemia): 4300 nM
- GI50 (NCI/ADR-RES ovarian): 1830 nM
- TGI (NCI/ADR-RES ovarian): 6250 nM
- GI50 (LOX IMVI melanoma): 1690 nM
- TGI (LOX IMVI melanoma): 3260 nM
- GI50 (UO-31 renal): 1360 nM
- TGI (UO-31 renal): 2710 nM
- GI50 (PC-3 prostate): 1480 nM
- TGI (PC-3 prostate): 4310 nM
- GI50 (SF-268 CNS): 1790 nM
- TGI (SF-268 CNS): 3790 nM
- GI50 (MOLT-4 leukemia): 2080 nM
- TGI (MOLT-4 leukemia): 7080 nM
- GI50 (A498 renal): 1070 nM
- TGI (A498 renal): 2760 nM
- GI50 (786-0 renal): 1560 nM
- TGI (786-0 renal): 3480 nM
- GI50 (HL-60(TB) leukemia): 1970 nM
- TGI (HL-60(TB) leukemia): 4270 nM
- GI50 (HOP-92 NSCLC): 1210 nM
- TGI (HOP-92 NSCLC): 3240 nM
- GI50 (M14 melanoma): 1640 nM
- TGI (M14 melanoma): 3280 nM
- GI50 (MDA-MB-435): 1560 nM
- TGI (MDA-MB-435): 3050 nM
- GI50 (HCT-15 colon): 1710 nM
- TGI (HCT-15 colon): 5960 nM
- GI50 (HT29 colon): 2180 nM
- TGI (HT29 colon): 10300 nM
- GI50 (T-47D breast): 2110 nM
- TGI (T-47D breast): 7060 nM
- GI50 (OVCAR-5 ovarian): 2360 nM
- TGI (OVCAR-5 ovarian): 7630 nM
- GI50 (SK-MEL-5 melanoma): 1510 nM
- TGI (SK-MEL-5 melanoma): 2840 nM
- GI50 (NCI-H460 lung): 1750 nM
- TGI (NCI-H460 lung): 4100 nM
- GI50 (SK-MEL-2 melanoma): 1810 nM
- TGI (SK-MEL-2 melanoma): 3540 nM
- GI50 (SNB-75 CNS): 1530 nM
- TGI (SNB-75 CNS): 4500 nM
- GI50 (UACC-257 melanoma): 1660 nM
- TGI (UACC-257 melanoma): 3460 nM
- GI50 (RXF 393 renal): 1180 nM
- TGI (RXF 393 renal): 3170 nM
- GI50 (RPMI-8226 leukemia): 1340 nM
- TGI (RPMI-8226 leukemia): 3920 nM
- GI50 (SR leukemia): 1570 nM
- TGI (SR leukemia): 5000 nM
- GI50 (KM12 colon): 1970 nM
- TGI (KM12 colon): 4770 nM
- GI50 (SW-620 colon): 1600 nM
- TGI (SW-620 colon): 3470 nM
- GI50 (U251 CNS): 1680 nM
- TGI (U251 CNS): 3620 nM
- GI50 (OVCAR-4 ovarian): 2350 nM
- TGI (OVCAR-4 ovarian): 10700 nM
- GI50 (EKVX NSCLC): 2490 nM
- TGI (EKVX NSCLC): 11100 nM
- GI50 (UACC-62 melanoma): 1570 nM
- TGI (UACC-62 melanoma): 3070 nM
- GI50 (HS 578T breast): 1720 nM
- TGI (HS 578T breast): 3960 nM
- GI50 (HCT-116 colon): 1520 nM
- TGI (HCT-116 colon): 3430 nM
- GI50 (SK-MEL-28 melanoma): 1710 nM
- TGI (SK-MEL-28 melanoma): 3740 nM
- GI50 (TK-10 renal): 2580 nM
- TGI (TK-10 renal): 8090 nM
- GI50 (DU-145 prostate): 2200 nM
- TGI (DU-145 prostate): 5880 nM
- GI50 (ACHN renal): 2280 nM
- TGI (ACHN renal): 7610 nM
- GI50 (OVCAR-8 ovarian): 2510 nM
- TGI (OVCAR-8 ovarian): 8240 nM
- GI50 (MALME-3M melanoma): 1740 nM
- TGI (MALME-3M melanoma): 3360 nM
